Test results taken from patent US8183262B2, “Pyridine derivatives as mGluR2 antagonists” (Hoffmann-La Roche Inc., priority 2007, dated 2012).

Compound | melting point
COCCNS(=O)(=O)c1cccc(-c2cccc(-c3cc(-c4ccc(C(F)(F)F)cc4)cc(C)n3)n2)c1 [Example 371, N-(2-Methoxy-ethyl)-3-[6′-methyl-4′-(4-trifluoromethyl-phenyl)-[2,2′]bipyridinyl-6-yl]-benzenesulfonamide] | 126 °C
Nc1ccc(-c2noc(-c3nc(-c4ccc(Cl)cc4)cc(C(F)(F)F)n3)n2)cn1 [Example 9, 5-{5-[4-(4-Chloro-phenyl)-6-trifluoromethyl-pyrimidin-2-yl]-[1,2,4]oxadiazol-3-yl}-pyridin-2-ylamine] | 211 °C
Cc1cc(-c2ccc(Cl)c(Cl)c2)nc(-c2cccc(-c3ccc(N)nc3)c2)n1 [Example 147, 5-{3-[4-(3,4-Dichloro-phenyl)-6-methyl-pyrimidin-2-yl]-phenyl}-pyridin-2-ylamine] | 170.5 °C
Cc1cc(-c2ccc(C(F)(F)F)cc2)cc(-c2cccc(-c3cccc(S(=O)(=O)NC(=O)C(C)C)c3)n2)n1 [Example 455, N-Isobutyryl-3-[6′-methyl-4′-(4-trifluoromethyl-phenyl)-[2,2′]bipyridinyl-6-yl]-benzenesulfonamide] | 190 °C
COc1cc(-c2cc(C)nc(-c3ccnc(-c4cccc(S(N)(=O)=O)c4)c3)c2)ccc1C(F)(F)F [Example 340, 3-[4-(3-Methoxy-4-trifluoromethyl-phenyl)-6-methyl-[2,4′]bipyridinyl-2′-yl]-benzenesulfonamide] | 233 °C (dec.)
Cc1cc(-c2ccc(C(F)(F)F)cc2)nc(-c2cccc(-c3cccc(S(=O)(=O)NC(C)(C)C)c3)n2)n1 [Example 418, N-tert-Butyl-3-{6-[4-methyl-6-(4-trifluoromethyl-phenyl)-pyrimidin-2-yl]-pyridin-2-yl}-benzenesulfonamide] | > 250 °C
Cc1cc(-c2ccc(C(F)(F)F)cc2)cc(-c2ccc(-c3cnc(N)nc3)s2)n1 [Example 253, 5-{5-[6-Methyl-4-(4-trifluoromethyl-phenyl)-pyridin-2-yl]-thiophen-2-yl}-pyrimidin-2-ylamine] | > 250 °C
Cc1cc(-c2ccc(Cl)c(Cl)c2)nc(-n2cnc(-c3ccc(S(N)(=O)=O)s3)c2)n1 [Example 216, 5-{1-[4-(3,4-Dichloro-phenyl)-6-methyl-pyrimidin-2-yl]-1H-imidazol-4-yl}-thiophene-2-sulfonic acid amide] | 253.5 °C
NS(=O)(=O)c1cnc(-c2cn(-c3nc(-c4ccc(Cl)cc4)cc(C(F)(F)F)n3)cn2)s1 [Example 182, 2-{1-[4-(4-Chloro-phenyl)-6-trifluoromethyl-pyrimidin-2-yl]-1H-imidazol-4-yl}-thiazole-5-sulfonic acid amide] | 263 °C
NS(=O)(=O)c1ccc(-c2cn(-c3nc(-c4ccc(C(F)(F)F)cc4)cc(C(F)(F)F)n3)cn2)s1 [Example 163, 5-{1-[4-Trifluoromethyl-6-(4-trifluoromethyl-phenyl)-pyrimidin-2-yl]-1H-imidazol-4-yl}-thiophene-2-sulfonic acid amide] | 281 °C
Cc1cc(-c2ccc(C(F)(F)F)cc2)cc(-c2ccnc(-c3ccc(S(=O)(=O)NC(C)(C)C)s3)c2)n1 [Example 304, 5-[6-Methyl-4-(4-trifluoromethyl-phenyl)-[2,4′]bipyridinyl-2′-yl]-thiophene-2-sulfonic acid tert-butylamide] | 225 °C
Cc1cc(-c2ccc(C(F)(F)F)cc2)cc(-c2nccc(-c3ccc(N)nc3)n2)n1 [Example 241, 5-{2-[6-Methyl-4-(4-trifluoromethyl-phenyl)-pyridin-2-yl]-pyrimidin-4-yl}-pyridin-2-ylamine] | 258 °C
NS(=O)(=O)c1cccc(-c2cc(-c3nc(-c4cccc(C(F)(F)F)c4)cc(C(F)(F)F)n3)ccn2)c1 [Example 449, 3-{4-[4-Trifluoromethyl-6-(3-trifluoromethyl-phenyl)-pyrimidin-2-yl]-pyridin-2-yl}-benzenesulfonamide] | 244 °C
CONS(=O)(=O)c1cccc(-c2cccc(-c3cc(-c4ccc(C(F)(F)F)cc4)cc(C)n3)c2)c1 [Example 258, 3′-[6-Methyl-4-(4-trifluoromethyl-phenyl)-pyridin-2-yl]-biphenyl-3-sulfonic acid methoxy-amide] | 181 °C
Nc1ccc(-c2cccc(-c3nc(-c4ccc(C(F)(F)F)cc4)cc(C(F)F)n3)c2)cn1 [Example 41, 5-{3-[4-Difluoromethyl-6-(4-trifluoromethyl-phenyl)-pyrimidin-2-yl]-phenyl}-pyridin-2-ylamine] | 191 °C
Nc1ccc(-c2cn(-c3nc(-c4cccc(C(F)(F)F)c4)cc(C(F)(F)F)n3)cn2)cn1 [Example 53, 5-{1-[4-Trifluoromethyl-6-(3-trifluoromethyl-phenyl)-pyrimidin-2-yl]-1H-imidazol-4-yl}-pyridin-2-ylamine] | 262 °C
NS(=O)(=O)c1cccc(-c2cc(-c3cc(C(F)(F)F)cc(-c4ccc(C(F)(F)F)cc4)n3)ccn2)c1 [Example 286, 3-[4-Trifluoromethyl-6-(4-trifluoromethyl-phenyl)-[2,4′]bipyridinyl-2′-yl]-benzenesulfonamide] | 227 °C (dec.)

Compound | melting point
Cc1cc(-c2ccc(Cl)cc2)cc(-n2cnc(-c3ccc(N)nc3)c2)n1 [Example 80, 5-{1-[4-(4-Chloro-phenyl)-6-methyl-pyridin-2-yl]-1H-imidazol-4-yl}-pyridin-2-ylamine] | 230 to 233 °C
CC(C)(C)NS(=O)(=O)c1cccc(-c2cccc(-c3nc(-c4ccc(C(F)(F)F)cc4)cc(C(F)(F)F)n3)n2)c1 [Example 362, N-tert-Butyl-3-{6-[4-trifluoromethyl-6-(4-trifluoromethyl-phenyl)-pyrimidin-2-yl]-pyridin-2-yl}-benzenesulfonamide] | 75 °C
Nc1ncc(-c2cccc(-c3cc(-c4ccc(Cl)cc4)cc(C(F)(F)F)n3)c2)cn1 [Example 234, 5-{3-[4-(4-Chloro-phenyl)-6-trifluoromethyl-pyridin-2-yl]-phenyl}-pyrimidin-2-ylamine] | 239 °C
Cc1cc(-c2ccc(Cl)cc2)nc(-n2cnc(-c3ccc(N)nc3)c2)n1 [Example 43, 5-{1-[4-(4-Chloro-phenyl)-6-methyl-pyrimidin-2-yl]-1H-imidazol-4-yl}-pyridin-2-ylamine] | 206 to 208 °C
Cc1cc(-c2ccc(Cl)cc2)nc(-n2cnc(-c3cccc(S(N)(=O)=O)c3)c2)n1 [Example 176, 3-{1-[4-(4-Chloro-phenyl)-6-methyl-pyrimidin-2-yl]-1H-imidazol-4-yl}-benzenesulfonamide] | 275 °C
NS(=O)(=O)c1ccc(-c2cn(-c3nc(-c4cccc(Cl)c4)cc(C(F)(F)F)n3)cn2)s1 [Example 188, 5-{1-[4-(3-Chloro-phenyl)-6-trifluoromethyl-pyrimidin-2-yl]-1H-imidazol-4-yl}-thiophene-2-sulfonic acid amide] | 280 °C
CCC(=O)NS(=O)(=O)c1cccc(-c2cc(-c3nc(-c4ccc(C(F)(F)F)cc4)cc(C(F)(F)F)n3)ccn2)c1 [Example 374, N-Propionyl-3-{4-[4-trifluoromethyl-6-(4-trifluoromethyl-phenyl)-pyrimidin-2-yl]-pyridin-2-yl}-benzenesulfonamide] | 144 °C
NS(=O)(=O)c1cccc(-c2cccc(-c3nc(-c4ccc(Cl)c(Cl)c4)cc(C(F)(F)F)n3)c2)c1 [Example 202, 3′-[4-(3,4-Dichloro-phenyl)-6-trifluoromethyl-pyrimidin-2-yl]-biphenyl-3-sulfonic acid amide] | 241 °C
CCNS(=O)(=O)c1cccc(-c2cccc(-c3cc(-c4ccc(C(F)(F)F)cc4)cc(C)n3)n2)c1 [Example 446, N-Ethyl-3-[6′-methyl-4′-(4-trifluoromethyl-phenyl)-[2,2′]bipyridinyl-6-yl]-benzenesulfonamide] | 135 °C
Nc1ccc(-c2noc(-c3nc(-c4ccc(Cl)c(Cl)c4)cc(C(F)(F)F)n3)n2)cn1 [Example 100, 5-{5-[4-(3,4-Dichloro-phenyl)-6-trifluoromethyl-pyrimidin-2-yl]-[1,2,4]oxadiazol-3-yl}-pyridin-2-ylamine] | 227 °C
COC1CCN(S(=O)(=O)c2cccc(-c3cccc(-c4cc(-c5ccc(C(F)(F)F)cc5)cc(C)n4)n3)c2)CC1 [Example 429, 6′-[3-(4-Methoxy-piperidine-1-sulfonyl)-phenyl]-6-methyl-4-(4-trifluoromethyl-phenyl)-[2,2′]bipyridinyl] | 107 °C
NS(=O)(=O)c1cccc(-c2cccc(-c3nc(-c4ccc(F)c(F)c4)cc(C(F)(F)F)n3)c2)c1 [Example 393, 3′-[4-(3,4-Difluoro-phenyl)-6-trifluoromethyl-pyrimidin-2-yl]-biphenyl-3-sulfonic acid amide] | 211 °C
Cc1cc(-c2ccc(C(F)(F)F)cc2)nc(-n2cnc(-c3cnc(N)nc3)c2)n1 [Example 47, 5-{1-[4-Methyl-6-(4-trifluoromethyl-phenyl)-pyrimidin-2-yl]-1H-imidazol-4-yl}-pyrimidin-2-ylamine] | 267 to 269 °C
CC(=O)Nc1ccc(-c2cn(-c3nc(-c4ccc(C(F)(F)F)cc4)cc(C(F)(F)F)n3)cn2)cn1 [Example 95, N-(5-{1-[4-Trifluoromethyl-6-(4-trifluoromethyl-phenyl)-pyrimidin-2-yl]-1H-imidazol-4-yl}-pyridin-2-yl)-acetamide] | 314 °C
NS(=O)(=O)c1cccc(-c2cccc(-c3nc(-c4ccc(C(F)(F)F)cc4)cc(C(F)F)n3)c2)c1 [Example 456, 3′-[4-Difluoromethyl-6-(4-trifluoromethyl-phenyl)-pyrimidin-2-yl]-biphenyl-3-sulfonic acid amide] | 204 °C
Cc1cc(-c2ccc(Cl)c(Cl)c2)nc(-n2cnc(-c3ccc(S(N)(=O)=O)cc3)c2)n1 [Example 199, 4-{1-[4-(3,4-Dichloro-phenyl)-6-methyl-pyrimidin-2-yl]-1H-imidazol-4-yl}-benzenesulfonamide] | 282.5 °C
Cc1cc(-c2ccc(Cl)cc2)cc(-c2cncc(-c3ccc(N)nc3)c2)n1 [Example 81, 4-(4-Chloro-phenyl)-6-methyl-[2,3′;5′,3″]terpyridin-6″-ylamine] | 188 to 192 °C
